Measurements from PubChem BioAssay AID743395 (Broad Institute, 2014).

Test system: HepG2 viability, CellTiter-Glo ATP luminescence, 72 h
Assay: viability loss in human hepatoma cells – cell-based, CellTiter-Glo luminescence, cherry-pick, set 2, cytotoxicity control, dose response (AID 743395)

With `CC1(C)CCN2CCC(C)(C)c3c(O)ccc1c32` the AC35 was 6.54 µM.
In the case of `Cn1cccc1/C=C1\SC(=Nc2cccc(O)c2)NC1=O`, the AC35 is reported as 14.2 µM.
Compound `Cc1nc(C)c(C(=O)NN=Cc2ccc(N(CCCl)CCCl)cc2)s1` has an AC35 of 11.8 µM.
`COc1cc(/C=C2/SC(=Nc3ccc(O)cc3)NC2=O)cc(OC)c1O` gave an AC35 of 14.7 µM.
`CCN(CC)CCn1c2ccccc2c2nc3ccccc3nc21` showed an AC35 of 19.9 µM.
In the case of `CCOC(=O)c1ccc(Nc2sc(C(=O)c3cccc([N+](=O)[O-])c3)c(N)c2C#N)cc1`, the AC35 is reported as 6.7 µM.
For `CC(=O)Oc1ccc(N2C(=O)c3cccc4c([N+](=O)[O-])ccc(c34)C2=O)cc1`, the AC35 was 16.7 µM.
Work on `CN(CC1CCCO1)S(=O)(=O)c1ccc(C(=O)Nc2nnc(-c3ccccc3)o2)cc1` (configuration not stated) yielded an AC35 of 9.86 µM.
`COc1ccc(/C=N/NC(=S)Nc2ccccc2[N+](=O)[O-])cc1O` showed an AC35 of 14.4 µM.
Compound `CCCNC(=O)c1ccc2c(=O)c(O)c(-c3cccc(Br)c3)[nH]c2c1` has an AC35 of 4.65 µM.
`C[C@H](CO)N1C[C@H](C)[C@H](CN(C)C(=O)NC2CCCCC2)Oc2cc(C#Cc3cccc(F)c3)ccc2S1(=O)=O` was tested, and the AC35 was 10.9 µM.
`O=C1c2ccc3c4c(ccc(c24)C(=O)N1CCCCO)C(=O)N(CCCCO)C3=O` was tested, and the AC35 was 2.63 µM.
`CCCC(=O)NC(NC(=S)Nc1ccc(N=Nc2ccccc2)cc1)C(Cl)(Cl)Cl` (configuration not stated) was tested, and the AC35 was 5.73 µM.
`O=C(CCc1ccccc1)NCC(c1ccco1)N1CCc2ccccc21` (configuration not stated) gave an AC35 of 16.7 µM.
Compound `CCCC(=O)Nc1ccc2c(c1)nc(CN1CCN(C(=O)OCC)CC1)n2CC` has an AC35 of 18.9 µM.
With `CCOC(=O)N1CCC(NC(=O)c2ccc3c(c2)N=C(C)c2c(C)ccc(C)c2S3)CC1` the AC35 was 2.44 µM.
Work on `CC(=O)Nc1ccc2cc3ccc(NC(C)=O)cc3nc2c1` yielded an AC35 of 11.6 µM.
`Cc1ccc(-c2ccc([C@H]3[C@@H](CO)N4CCCCN(C(=O)Nc5cccc(F)c5)C[C@H]34)cc2)cc1` was tested, and the AC35 was 11 µM.
Work on `COc1ccc(OC)c2[nH]c(C(=O)N/N=C/c3ccccc3O)cc12` yielded an AC35 of 3.77 µM.
`CCCC#Cc1ccc([C@H]2[C@@H](CO)N3CCCCN(S(=O)(=O)c4ccccc4C)C[C@H]23)cc1` showed an AC35 of 8.96 µM.
Work on `COc1ccc(O)c(/C=N/NC(=O)c2ccc(N3CCCC3=O)cc2)c1` yielded an AC35 of 2.93 µM.
Work on `CCOc1ccc(-c2cc(C(=O)N3CCN(c4ccccn4)CC3)c3ccccc3n2)cc1` yielded an AC35 of 10.9 µM.
With `CC1(Cc2ccc(F)cc2)C(=O)Nc2c(Cl)ccc(Cl)c21` (configuration not stated) the AC35 was 12 µM.
With `COc1ccc(N2CCc3c(C)nc4c(OC)cc(OC)cc4c32)cc1` the AC35 was 9.38 µM.
Compound `CN(C)c1ccc(-[n+]2c(-c3ccccc3)cc(-c3ccccc3)cc2-c2ccccc2)cc1` has an AC35 of 3.01 µM.
In the case of `COc1cccc(S(=O)(=O)N(C)C[C@@H]2Oc3cc(C4=CCCC4)ccc3S(=O)(=O)N([C@H](C)CO)C[C@H]2C)c1`, the AC35 is reported as 20.3 µM.
For `CC(C)C[C@H]1CN([C@@H](CC(C)C)CN2CCC[C@@H]2CN2C(=S)NC[C@@H]2Cc2ccc(O)cc2)C(=S)N1CCc1ccccc1`, the AC35 was 19.2 µM.
`C1CCC(C(CC2CCCCN2)C2CCCCC2)CC1` (configuration not stated) was tested, and the AC35 was 6.26 µM.
For `COc1ccc(NC(=O)Nc2ccc3c(c2)C(=O)N([C@H](C)CO)C[C@@H](C)[C@H](CN(C)Cc2ccc(C(F)(F)F)cc2)OCCCC[C@H](C)O3)cc1`, the AC35 was 13.9 µM.
Compound `CCOc1cc(/C=N/NC(=O)N/N=C/c2ccc(O)c(OCC)c2)ccc1O` has an AC35 of 20 µM.
`Cc1cc(C(=O)N/N=C/c2ccc(N(C)C)cc2)c2ccccc2n1` was tested, and the AC35 was 8.84 µM.
For `CC1=Nc2cc(C(=O)NCC3CCCO3)ccc2Sc2ccc(C)cc21` (configuration not stated), the AC35 was 13.5 µM.
`COc1cc(OC)c2c(-c3cccc(-c4cccc(N)c4)c3)cc(=O)oc2c1` showed an AC35 of 13.4 µM.
Compound `CCN(CC)c1ccc(/C=N/NC(=O)c2cnccn2)c(O)c1` has an AC35 of 1.61 µM.
In the case of `C[C@H]1CCC/C=C/[C@@H]2C[C@H](O)C[C@H]2[C@H](O)/C=C/C(=O)O1`, the AC35 is reported as 0.115 µM.
For `CC(=O)Nc1ccc(S(=O)(=O)NC2=C(N3CCN(Cc4ccccc4)CC3)C(=O)c3ccccc3C2=O)cc1`, the AC35 was 17.1 µM.
`CCN(CC)CCCNc1nc2ccccc2c2[nH]c3ccc(OC)cc3c12` was tested, and the AC35 was 2.39 µM.
`COCCNC(=O)c1cc(-c2ccc(-c3ccccc3)cc2)nc2ccccc12` was tested, and the AC35 was 17.9 µM.
With `CN(C)CCCN(C(=O)c1ccco1)c1nc(-c2ccc(Cl)cc2)cs1` the AC35 was 22.2 µM.
`c1ccc(CCNc2nc(-c3ccccn3)nc3ccccc23)cc1` gave an AC35 of 4.46 µM.
`COc1ccc(CNC(=O)c2c(C)oc3c2C(=O)c2ccccc2C3=O)cc1` gave an AC35 of 2.36 µM.
`Cc1ccc(-c2csc(Nc3ccccn3)n2)cc1` was tested, and the AC35 was 13 µM.
`C=C1C(=O)O[C@@H]2C[C@@H](C)[C@@H]3C=CC(=O)[C@@]3(C)[C@@H](O)[C@H]12` was tested, and the AC35 was 2.99 µM.
`O=C(CN1CCCC1)N/N=C/c1c(O)ccc2ccccc12` showed an AC35 of 12.6 µM.
`Cc1ccc(-c2csc3ncn(CC#N)c(=O)c23)cc1C` was tested, and the AC35 was 17.9 µM.
With `Cc1noc(C)c1COc1ccc(C(=O)NNC(=O)c2ccccc2)cc1` the AC35 was 12.2 µM.
Work on `COc1cc(/C=C2/SC(=S)N(Cc3ccccc3)C2=O)cc(Cl)c1O` yielded an AC35 of 12.5 µM.
`CCc1c(C)nc2ncnn2c1NCCc1ccc(OC)cc1` gave an AC35 of 11.5 µM.
`CCOC(=O)c1c(C)[nH]c(C(=O)N/N=C/c2ccc(OC)c(OC)c2)c1C` showed an AC35 of 6.01 µM.
With `O=C1NC(=Nc2ccc(O)cc2)S/C1=C/c1ccco1` the AC35 was 11.7 µM.
Work on `COc1ccc([C@H]2CC(=O)C=C(c3ccc(OC)cc3OC)C2)cc1` yielded an AC35 of 7.54 µM.
`COc1cc(OC)cc(C(=O)OCC(=O)NC(c2ccccc2)c2ccccc2)c1` gave an AC35 of 16.2 µM.
`COc1ccccc1C(=O)NC(=S)/C=C1/N(C)c2ccccc2C1(C)C` was tested, and the AC35 was 16 µM.
`Oc1ccc2ccccc2c1/C=C/c1ccc2c(Br)cc(Br)c(O)c2n1` showed an AC35 of 9.42 µM.
`O=c1c2ccccc2sc2c(CO)ccc(NCCN3CCCCC3)c12` gave an AC35 of 4.82 µM.
`Cc1ccc2c(C)c3ccc4ccccc4c3c[n+]2c1` gave an AC35 of 5.47 µM.
`CC(C)Cc1ccc(-c2cc3nc(NCc4cccc(Cl)c4)ccn3n2)cc1` was tested, and the AC35 was 11.1 µM.
`CC(=O)Nc1cccc(-c2ccnc3c2CC(C)(C(=O)NCc2cccs2)O3)c1` (configuration not stated) was tested, and the AC35 was 2.49 µM.
`c1coc(-c2nc3ccccc3s2)c1` gave an AC35 of 7.04 µM.
`COc1ccc(C(=O)NCCN(C)C)c2nc3ccccc3cc12` was tested, and the AC35 was 2.81 µM.
In the case of `CC(=O)c1cccc(Nc2c3c(nc4ccccc24)CCC3)c1`, the AC35 is reported as 17.9 µM.
`C[C@@H]1CN([C@@H](C)CO)C(=O)Cc2cc(N(C)C)ccc2O[C@@H]1CN(C)Cc1ccc(C(=O)Nc2ccccc2N)cc1` was tested, and the AC35 was 11.5 µM.
`COc1ccccc1NC1=C(NC(C)=O)C(=O)c2ccccc2C1=O` was tested, and the AC35 was 12.2 µM.
For `N#C/C(=C/c1ccc(N2CCCCC2)o1)C(=O)Nc1ccc2ccccc2c1`, the AC35 was 21.1 µM.
Compound `CCN(CC)c1ccc(/C=N/NC(=O)c2cnccn2)cc1` has an AC35 of 6.68 µM.
Compound `O=C(Nc1cccc(C2=NCCN2)c1)Nc1cccc(C2=NCCN2)c1` has an AC35 of 5.69 µM.
For `Cc1cccc(N2CCN(S(=O)(=O)c3cc(-c4cc(C)no4)ccc3C)CC2C)c1` (configuration not stated), the AC35 was 17.4 µM.
`CCOC(=O)[C@]12CCCC=C1N(Cc1cccc3ccccc13)C(=O)[C@H](CC(=O)NCc1cccc(C(F)(F)F)c1)C2` gave an AC35 of 9.99 µM.
In the case of `N#C[C@H]1[C@H](c2ccc(C3=CCCCC3)cc2)[C@@H](CO)N1C(=O)NC1CCCCC1`, the AC35 is reported as 10.3 µM.
In the case of `COc1ccccc1C#Cc1ccc2c(c1)O[C@@H](CN(C)Cc1cccnc1)[C@H](C)CN([C@H](C)CO)S2(=O)=O`, the AC35 is reported as 22.4 µM.
For `COc1ccc(OC)c(C(=O)Cn2nnc(-c3ccc(N4CCOCC4)cc3)n2)c1`, the AC35 was 16.6 µM.
Work on `CC1(C(=O)NCc2ccco2)Cc2c(-c3ccc4c(c3)OCO4)ccnc2O1` (configuration not stated) yielded an AC35 of 9.85 µM.
